Values of other authors as cited in patent US20080103124A1, “Cefdinir-containing pharmaceutical composition” (ASTELLAS PHARMA INC., priority 2006, published 2008).
Where two headings read alike, the source gives them in different places.

Conditions: human beings

- absolute bioavailability (following administration of a 300 mg capsule): 21%
- absolute bioavailability (following administration of an oral suspension of 250 mg/5 mL): 25%
Structure (SMILES): C=CC1=C(C(=O)O)N2C(=O)[C@@H](NC(=O)/C(=N\O)c3csc(N)n3)[C@H]2SC1 [cefdinir]
